Numbers after ± are expanded uncertainties.

Here are results for one compound from the NIST ThermoML archive (doi:10.1016/j.jct.2013.10.005).

The conditions of this data set: 298 K; 101.33 kPa; Crystal; X-ray diffraction.

In the case of `O.O.O.O.O=C([O-])[C@H](O)[C@@H](O)[C@H](O)[C@H](O)CO.O=C([O-])[C@H](O)[C@@H](O)[C@H](O)[C@H](O)CO.[Ba+2]` [barium D-gluconate tetrahydrate], the mass density (commonly mass per unit of volume) is 1969 ± 10 kg/m3.
